According to patent publication US20200062710A1, “Method For Producing 3-(Pyridyl-2-Amino)Propionitrile And Analogues Thereof” (Nipppon Kayaku Kabushiki Kaisha, priority 2016, published 2020):

Tests used:
[1] = system: Rice Brown Planthopper (Nilaparvata lugens); assay: Pest control test (stem and leaf soaking treatment) to rice brown planthopper; format: in vivo; conditions: 800 ppm, rice seedlings soaked, 25° C., five days after treatment
Method: Biological Test Example 2: Pest Control Test (Stem and Leaf Soaking Treatment) to Rice Brown Planthopper (Nilaparvata lugens)
Ten rice seedlings were soaked in 20 mL of the test compound solution diluted to 800 ppm and air-dried. After air drying, the rice seedings were hold in a glass cylinder (inner diameter 4.5 cm×14 cm) with urethane and stood on the plastic cup in which 40 mL of water was put. The […] larva of rice brown planthopper was released there, covered with medicine package, and kept in a constant temperature room at 25° C. In five days after treatment, life and death were observed and the mortality was calculated.

[2] = system: Twospotted Spider Mite (Tetranychus urticae); assay: Pest control test (leaf soaking treatment) to twospotted spider mite; format: in vivo; conditions: 800 ppm, bean leaf with eggs soaked about 30 seconds, 25° C., seven days after treatment
Method: Biological Test Example 1: Pest Control Test (Leaf Soaking Treatment) to Twospotted Spider Mite (Tetranychus urticae)
A bean leaf was cut to a diameter of 3.5 cm and placed on absorbent cotton moistened with water. Five adult females of the twospotted spider mite were released on the bean leaf and laid eggs for 24 hours, and then the adults were removed. This bean leaf was soaked for about 30 seconds in 20 mL of the dilution solution of the test compound diluted to 800 ppm. After air-drying, the bean leaf was put in a plastic cup together with absorbent cotton, covered, and kept in a constant temperature room at 25° C. In seven days after treatment, life and death were observed and the ovicidal rate was calculated.

Row | Structure (SMILES) | control effect (mortality) [1] [%] | pest control effect (ovicidal rate) [2] [%]
1 | N#CCCNc1ccccn1 [compound (1′), 3-(Pyridyl-2-amino)propionitrile] | 50 | 
2 | N#CCCN(C=O)c1ccccn1 [compound (4′), N-(2-cyanoethyl)-N-(2-pyridyl)formamide] |  | 100
